Test results as given in US11166891B2, “Bis phenyl hexa trien derivatives, preparation method thereof, and composition for skin whitening containing the same as an active ingredient” (Korea Research Institute of Chemical Technology, priority 2018, dated 2021).

How the values were obtained:
[1] = test system: B16F10 melanoma cells; experiment: Cytotoxicity, MTT assay; assay type: cell-based; conditions: 48 hours; for cytotoxicity: at the concentration of 10 μM or more
Method: B16F10 melanoma cells were distributed in a 96-well plate at the density of 2×10^3 cells/well. The cells were cultured in DMEM supplemented with 10% fetal bovine serum (FBS) at 37° C. in 5% CO2 for 24 hours. The cells were exposed on the compounds of example and comparative examples 1˜4 at the set concentration each for 48 hours. MTT assay was performed to evaluate cytotoxicity. To perform MTT assay, MTT solution was added to the cells, followed by reaction for 2 hours. Then, DMSO was added thereto to dissolve formazan crystals, followed by measurement of OD570.

[2] = test system: mushroom tyrosinase; experiment: Tyrosinase activity inhibition (L-DOPA oxidation); assay type: biochemical; conditions: pH 7.0, FIG. 8; for inhibitory effect on tyrosinase activity: 6.25 μM (equal concentration)
Method: Samples were dissolved in an organic solvent such as ethanol, which were diluted in a proper buffer such as 100 mM phosphate buffer (pH 7.0). Those samples diluted at a proper concentration in order to inhibit the activity to DOPA oxidation reaction were used as the sample solutions for the experiment. 850 μL of 100 mM phosphate buffer (pH 7.0), 50 μL of the sample solution and 50 μL of mushroom tyrosinase (2000 U/ml) were loaded in a test tube in that order, followed by reaction at 37° C. for 5 minutes. 50 μL of 0.06 mM L-DOPA (L-3,4-dihydroxyphenylalanine) solution was added thereto, and then OD475 was measured using a microplate reader. After reacting the solution at 37° C. for 15 minutes, OD475 was measured again. DMSO was used as the control and Kojic acid was used for the positive control.
Tyrosinase activity inhibition rate (%)=[(A-B)/A]×100
A: difference of OD in the control group (OD after the reaction—OD before the reaction)
B: difference of OD in the experimental group (OD after the reaction—OD before the reaction)

[3] = test system: tyrosinase gene expression in B16F10 melanoma cells; experiment: Inhibition of tyrosinase gene expression (real-time PCR); assay type: cell-based; conditions: α-MSH 10 nM, compound 2 μM, 72 hours, mRNA corrected to β-actin, FIG. 2
Method: (§1) B16F10 melanoma cells were distributed in a 6-well plate, to which α-MSH (10 nM) (melanin synthesis inducing substance, alpha-melanocyte-stimulating hormone) and the compounds of example and comparative examples 1˜4 were treated at the concentration of 2 μM each, followed by exposure-culture for 72 hours. Then, the cells were harvested and total RNA of the cells was extracted using RNeasy mini kit (Qiagen). CDNA was synthesized by using M-MLV reverse transcriptase, 5X first-strand butter, dNTP mix and oligo(dT) primer (Thermo Fisher Scientific). The cDNA product, the primers of each gene and LightCycler® MultiplexMasters (Roche) were mixed, followed by SYBR Green-based real-time PCR using LightCycler® NanoInstrument (Roche). To relatively evaluate the level of tyrosinase mRNA expression, the expression was corrected based on the level of β-actin mRNA expression. The PCR conditions for gene amplification are as follows.
Denaturation: 95° C., 10 seconds
Annealing: melting point of each primer, 10 seconds
Extension/Detection: 72° C., 20 seconds
Total cycle number: 45 cycles
Information on the primers used for the amplification of tyrosinase gene expression and information on the primers for β-actin used as a correction gene are as follows.

[4] = test system: MITF (microphthalmia-associated transcription factor) gene expression in B16F10 melanoma cells; experiment: Inhibition of MITF gene expression (real-time PCR); assay type: cell-based; conditions: α-MSH 10 nM, compound 2 μM, 72 hours, FIG. 3
Method: as §1
Evaluation of MITF gene expression was performed by the same manner as described in the evaluation of tyrosinase gene expression in experimental example 1. Information on the primers used for the amplification of MITF gene expression is as follows.

[5] = test system: TRP 1 (tyrosinase-related protein 1) gene expression in B16F10 melanoma cells; experiment: Inhibition of TRP 1 gene expression (real-time PCR); assay type: cell-based; conditions: α-MSH 10 nM, compound 2 μM, 72 hours, FIG. 4a
Method: as §1
(§2) Evaluation of TRP 1 and TRP 2 gene expression was performed by the same manner as described in the evaluation of tyrosinase gene expression. Information on the primers used for the amplification of TRP 1 and TRP 2 gene expression is as follows.

[6] = test system: TRP 2 (tyrosinase-related protein 2) gene expression in B16F10 melanoma cells; experiment: Inhibition of TRP 2 gene expression (real-time PCR); assay type: cell-based; conditions: α-MSH 10 nM, compound 2 μM, 72 hours, FIG. 4b
Method: as §1, §2

[7] = Antioxidative effect, DPPH radical scavenging activity test; conditions: 37° C., 30 minutes, FIG. 5
Method: The antioxidative effect was evaluated by 2,2-diphenyl-1-picrylhydrazyl (DPPH) radical scavenging activity test.
Dimethyl sulfoxide (DMSO), vitamin C and the compounds of example and comparative examples 1˜4 were added to a 96-well plate at each designated concentration, and 200 μL of 200 μM DPPH methanolic solution was added to each well. The plate was shaken gently to mix them all, followed by reaction at 37° C. for 30 minutes. Then, OD515 was measured. DMSO was used as the control for the measurement of antioxidative effect and vitamin C was used as the positive control for the measurement of antioxidative effect.

[8] = test system: melanin synthesis in B16F10 melanoma cells; experiment: Melanin synthesis inhibition; assay type: cell-based; conditions: α-MSH 10 nM, 72 hours
Method: B16F10 melanoma cells were distributed in a 96-well plate at the density of 3×10^5 cells/well. The cells were cultured in DMEM supplemented with 10% FBS at 37° C. in 5% CO2 for 24 hours. […] The cells were harvested, followed by dissolving in 1 N NaOH by heating at 80° C. for 20 minutes. Then, OD490 was measured. The melanin synthesis inhibition rate was calculated as follows.
Melanin inhibition rate (%)=[(C−S)/C]×100
C: OD when α-MSH alone was treated.
S: OD when each sample was treated.

COc1ccc(/C=C/C=C/C=C/c2ccc(OC)c(O)c2)cc1O [compound 4, 5,5′-((1E,3E,5E)-hexa-1,3,5-triene-1,6-diyl)bis(2-methoxyphenol)]
cytotoxicity [1]: strong cytotoxicity

COc1ccc(/N=C/c2ccc(O)cc2O)cc1 [compound 2, (E)-4-((4-methoxyphenylimino)methyl)benzene-1,3-diol]
inhibitory effect on tyrosinase activity [2]: did not show inhibitory effect on tyrosinase activity

Oc1ccc(/C=C/C=C/C=C/c2ccc(O)cc2)cc1 [compound 3, 4,4′-((1E,3E,5E)-hexa-1,3,5-triene-1,6-diyl)diphenol]
cytotoxicity [1]: strong cytotoxicity | inhibitory effect on tyrosinase activity [2]: did not show inhibitory effect on tyrosinase activity

COc1cccc(/C=C/C=C/C=C/c2cccc(OC)c2OC)c1OC [compound of example, (1E,3E,5E)-1,6-bis(2,3-dimethoxyphenyl)hexa-1,3,5-triene]
inhibitory effect on tyrosinase gene expression (relative expression level) [3]: excellent in inhibiting tyrosinase gene expression | inhibitory effect on MITF gene expression (relative expression level) [4]: excellent in inhibiting MITF gene expression | inhibitory effect on TRP 1 gene expression (relative expression level) [5]: excellent in inhibiting TRP1 and TRP2 gene expression | inhibitory effect on TRP 2 gene expression (relative expression level) [6]: excellent in inhibiting TRP1 and TRP2 gene expression | antioxidative effect (DPPH radical scavenging activity) ([7]; 40 μM, compared with comparative examples 1˜4): excellent antioxidative effect | antioxidative effect (DPPH radical scavenging activity) ([7]; about 25 μM, compared with comparative examples 1˜3): excellent antioxidative effect | cell survival rate ([1]; concentration increased from 5 μM to 15 μM, FIG. 6): ≥ 80% | melanin content in the cells ([8]; versus comparative examples, FIG. 7): significantly lower | melanin content in media and cells ([8]; compound 1 μM, versus comparative examples 1˜4, FIG. 7): lower in both media and cells | reduction of tyrosinase activity ([2]; 6.25 μM): approximately 20%

COc1cc(/C=C/C=C/C=C/c2ccc(O)c(OC)c2)ccc1O [comparative example 1, 4,4′-((1E,3E,5E)-hexa-1,3,5-triene-1,6-diyl)bis(2-methoxyphenol), reference compound]
inhibitory effect on tyrosinase gene expression (relative expression level) [3]: hardly had inhibitory effect on the expression of tyrosinase gene | cytotoxicity [1]: strong cytotoxicity
